From patent US7034056B2, “Aryl and biaryl compounds having MCH modulatory activity” (Pharmacopeia Drug Discovery, inc., priority 2001, dated 2006) come the findings set out here.

One test deals with T1, hMCHR (MCH receptor) (Homo sapiens, UniProt Q99705).
T1 construct: (or internally produced); host or cells: CHO (Chinese hamster ovary) cells, membrane preparation
T1 sequence (Q99705 whole entry): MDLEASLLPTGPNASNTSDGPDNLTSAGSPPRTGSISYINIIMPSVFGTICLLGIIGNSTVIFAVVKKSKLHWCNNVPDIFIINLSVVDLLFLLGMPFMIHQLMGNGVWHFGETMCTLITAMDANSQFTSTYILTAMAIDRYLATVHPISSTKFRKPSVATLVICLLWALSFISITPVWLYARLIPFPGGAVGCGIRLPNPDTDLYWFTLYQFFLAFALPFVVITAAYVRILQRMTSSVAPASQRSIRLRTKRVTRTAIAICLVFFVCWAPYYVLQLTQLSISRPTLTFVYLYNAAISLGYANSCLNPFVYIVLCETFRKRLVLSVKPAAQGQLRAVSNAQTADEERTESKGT
The test can be described thus: MCH Assay PCOP Protocol ([125I]-MCH SPA binding to hMCHR-CHO membranes).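 For Activity (Ki range): A 0.4–50 nM B 51–500 nM C 501–2500 nM.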 The note with it: [125I]-MCH 0.5 nM, hMCHR-CHO membranes; read-out: Activity (ranges of Ki values). In short, it runs like this:
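SPA binding with 10 μg hMCHR-CHO membranes and WGA-SPA beads in 25 mM HEPES pH 7.4, 10 mM NaCl, 10 mM MgCl2, 5 mM MnCl2, 0.1% BSA.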
As usually defined, the Ki is the equilibrium dissociation constant of an inhibitor or competing ligand from its target. In the case of `CNCCC(CNC(=O)Nc1cccc(F)c1)c1ccc(-c2cccc(C#N)c2)cc1` (stereo not drawn) [Example 49], the Ki is 0.4 to 50 nM. Turning to `CNCCC(CNC(=O)Nc1ccc(F)c(F)c1)c1ccc(-c2cccc(C#N)c2)cc1` (stereo not drawn) [Example 44], the Ki is 0.4 to 50 nM.

Regarding `O=C(NCC(CCNC1CCCC1)c1ccc(Cl)cc1)Nc1cccc(Br)c1` (stereo not drawn) [Example 136], the Ki is 51 to 500 nM. On the same count and under the same terms, under `O=C(NCC(CCNC1CCCC1)c1ccc(-c2ccc(F)c(F)c2)cc1)Nc1cc(Cl)cc(Cl)c1` (stereo not drawn) [Example 90] stands 0.4 to 50 nM.

Regarding `O=C(NCC(CCNC1CCCC1)c1ccc(Cl)cc1)Nc1cc(C(F)(F)F)cc(C(F)(F)F)c1` (stereo not drawn) [Example 108], the Ki was in the range of 51 to 500 nM. As to `Cc1ccc(C(CCN2CCC(NC(=O)c3ccno3)C2)CNC(=O)Nc2cc(Cl)cc(Cl)c2)cc1` (stereo not drawn) [Example 202], the Ki lay in the range of 501 to 2500 nM. With `CN(C)CCCNCCC(CNC(=O)Nc1cc(Cl)cc(Cl)c1)c1cccc(-c2ccc(Cl)cc2)c1` (stereo not drawn) [Example 151], the Ki fell in the range of 51 to 500 nM. On to `O=C(NCC(CCNC1CCCC1)c1cccc(-c2cccc([N+](=O)[O-])c2)c1)Nc1cc(Cl)cc(Cl)c1` (stereo not drawn) [Example 148], for which the Ki lay within 51 to 500 nM.

`COc1cc(-c2cccc(C(CCNC3CCCC3)CNC(=O)Nc3cc(Cl)cc(Cl)c3)c2)cc(OC)c1OC` (stereo not drawn) [Example 153]: the Ki lay in the range of 51 to 500 nM.

Turning to `Cc1noc(C)c1-c1ccc(C(CCNC2CCCC2)CNC(=O)Nc2cc(Cl)cc(Cl)c2)cc1` (stereo not drawn) [Example 97], the Ki fell in the range of 51 to 500 nM.

Still in this test, the particulars now being: [125I]-MCH SPA binding, hMCHR-CHO membranes; Ki class ranges; read-out: Activity (range of Ki).
As to `CN(C)CCCNCCC(CNC(=O)Nc1cc(C(F)(F)F)cc(C(F)(F)F)c1)c1ccc(Cl)c(Cl)c1` (stereo not drawn) [Example 425], the Ki was in the range of 501 to 2500 nM. Same read-out and setting: under `CCN(CCC(CNC(=O)Nc1cc(C(F)(F)F)cc(C(F)(F)F)c1)c1ccc(Cl)c(Cl)c1)Cc1ccncc1` (stereo not drawn) [Example 435] stands 501 to 2500 nM; under `CCN(CC)CCC(CNC(=O)Nc1cc(C(F)(F)F)cc(C(F)(F)F)c1)c1ccc(Cl)c(Cl)c1` (stereo not drawn) [Example 433], 501 to 2500 nM; under `Cc1ccc(C(CCN2CCC(N3CCCCC3)CC2)CNC(=O)Nc2cc(C(F)(F)F)cc(C(F)(F)F)c2)cc1` (stereo not drawn) [Example 443], 51 to 500 nM.

Still in this test, the particulars now being: [125I]-MCH binding to hMCHR-CHO membranes; class symbols for ranges of Ki; read-out: Activity (Ki range).
Regarding `CN(C)C1CCN(CCC(CNC(=O)Nc2cccc(C(F)(F)F)c2)c2ccc(Cl)c(Cl)c2)C1` (stereo not drawn) [Example 306], the Ki was in the range of 501 to 2500 nM. Regarding `Cc1cccc(C(CCNCCc2c[nH]c3ccccc23)CNC(=O)Nc2cc(C(F)(F)F)cc(C(F)(F)F)c2)c1` (stereo not drawn) [Example 336], the Ki is 501 to 2500 nM. For `O=C(NCc1cc(C(F)(F)F)cc(C(F)(F)F)c1)C(CCNCCc1c[nH]c2cc(F)ccc12)c1ccc(Cl)c(Cl)c1` (stereo not drawn) [Example 381], the Ki is 501 to 2500 nM. For the compound `COc1ccccc1-c1ccc(C(CCNC2CCCC2)CNC(=O)Nc2cc(Cl)cc(Cl)c2)cc1` (stereo not drawn) [Example 238], the Ki was 51 to 500 nM. As for `Cc1ccc(C(CCN2CCCCC2)CNC(=O)Nc2cc(Cl)cc(Cl)c2)cc1` (stereo not drawn) [Example 350], the Ki was in the range of 51 to 500 nM. In the case of `Cc1cccc(C(CCN2CCCC2)CNC(=O)Nc2cc(C(F)(F)F)cc(C(F)(F)F)c2)c1` (stereo not drawn) [Example 338], the Ki was in the range of 501 to 2500 nM.

As for `O=C(NCC(CCN1CCC(N2CCCCC2)CC1)c1ccc(Cl)c(Cl)c1)Nc1ccc([N+](=O)O)cc1` (stereo not drawn) [Example 315], the Ki lay within 51 to 500 nM. Regarding `O=C(NCC(CCNC1CCCC1)c1ccc(-c2cc(C(F)(F)F)cc(C(F)(F)F)c2)cc1)Nc1cc(Cl)cc(Cl)c1` (stereo not drawn) [Example 253], the Ki is 501 to 2500 nM. Regarding `CCN(CC)CCC(CNC(=O)c1cc(C(F)(F)F)cc(C(F)(F)F)c1)c1ccc(Cl)c(Cl)c1` (stereo not drawn) [Example 412], the Ki lay in the range of 501 to 2500 nM. Take `O=C(NCC(CCN1CCCCC1)c1ccc(Cl)c(Cl)c1)c1cc(C(F)(F)F)cc(C(F)(F)F)c1` (stereo not drawn) [Example 403]: the Ki was 501 to 2500 nM. `O=C(NCC(CCNCCN1CCCC1)c1ccc(Cl)c(Cl)c1)c1cc(C(F)(F)F)cc(C(F)(F)F)c1` (stereo not drawn) [Example 411]: the Ki is 501 to 2500 nM.

`COc1cc(NC(=O)NCC(CCN2CCCCC2)c2ccc(C)cc2)cc(OC)c1` (stereo not drawn) [Example 354]: the Ki lay in the range of 501 to 2500 nM. `O=C(NCC(CCNC1CCC1)c1ccc(Cl)c(Cl)c1)Nc1cccc(C(F)(F)F)c1` (stereo not drawn) [Example 283]: the Ki lay in the range of 51 to 500 nM.
